# Read-outs that look alike come from different tables or passages of the source.
# Key:
# TEAD4.Yap1 interaction [1] = target: T1, TEAD4.Yap1 interaction (Homo sapiens, UniProt Q15561); experiment: Fluorescence polarization, GST-TEAD4 with FAM-Yap60-99 peptide; format: binding; set-up: TEAD4 (217-434), TEAD4 (217-434) Cys367Ser mutant and Yap1 (Full-length) were expressed as GST-fusion proteins; made in house; host or cells: E. coli BL-21 (DE3), pGEX-6P-1; details: for inhibition of TEAD4.Yap1 interaction: FP assay, 24 h at 4° C.; for inhibition / maximum inhibition of TEAD4.Yap1 interaction: 24 h incubation at 4° C.; for t1/2^∞ (half-life of inactivation): corresponding to kinact
# Protocol: (§1) GST-TEAD4, GST-TEAD4 Cys367Ser mutant or HIS-TEAD2 interaction with Yap1 was investigated using a fluorescently-labeled peptide (FAM-Yap60-99), consisting of FAM-labeled TEAD-binding peptide fragment of Yap1 (FAM-[…] TVPMCLRKLPASFCKPP), which has a disulfide bridge (American Peptide, Sunnyvale, Calif.). Addition of FAM-Yap60-99 to the TEAD was followed by measurement of changes in polarization. 40 μL of 125 nM GST-TEAD4 WT or GST-TEAD4 Cys367Ser in assay buffer (PBS with 0.01% v/v Triton-X100) or 40 μL of 64 nM HIS-TEAD2 was added to a 384-well black polystyrene plate (Cat. No. 262260; Nunc, Roskilde, Denmark) and incubated with 5 μL of […] serially diluted compounds in assay buffer supplemented with 20% v/v DMSO for 24 h at 4° C. Finally, 5 μL of 160 nM FAM-Yap60-99 peptide was added, the plate centrifuged, and the polarization was measured on an Envision Multilabel Plate Reader (PerkinElmer, Waltham, Mass.) using a filter set with excitation and emission wavelengths of 485 and 535 nm, respectively. Percent inhibition was calculated as relative to a minimum inhibition control, which is without compound, and a maximum inhibition control, which is without a TEAD.
# For the determination of the inhibition efficiency kinact/K1, the protein compound incubation time was varied between […], prior to the addition of the FAM-Yap60-99 peptide and fluorescence polarization measurements. The progressive decrease in TEAD activities were plotted against time for all 10 concentrations ([…]) of the compounds and the observed rate of inhibition (kobs) was calculated by fitting a simple exponential function.
# The observed rate of inhibition was then plotted against the concentration of the compound and a […] function kobs=kinact[Inhibitor]/K1+[Inhibitor] was fitted to determine the kinact and K1 values.
# TEAD4 Cys367Ser mutant = target: T2, TEAD4 Cys367Ser mutant (Homo sapiens, UniProt Q15561, C367S); experiment: Whole protein ESI mass spectrometry, adduct formation with mutant; format: binding; details: 5 μM mutant, 12.5, 50, 200 μM at 4° C., 24 h
# T2 construct: TEAD4 (217-434) Cys367Ser mutant and Yap1 (Full-length) were expressed as GST-fusion proteins; made in house; host or cells: E. coli BL-21 (DE3), pGEX-6P-1
# Protocol: (§2) The samples were centrifuged at 20,000×g for […] to remove precipitants before being injected into an empty column on an Agilent 1200 liquid chromatography system (Agilent, Santa Clara, Calif.), using 80% Buffer A (H2O, 5 mM NH4OAc) and 20% Buffer B (ACN, 5 mM NH4OAc), and the masses were detected on an Agilent 6520 Accurate Mass Q-TOF.
# FIG. 4A illustrates analysis by ESI mass spectrometry after 10 μM TEAD4 Cys367Ser mutant was incubated with 200 μM compound for 24 h at 4° C. FIG. 4B illustrates measurement of fluorescence polarization due to binding when increasing concentration of TEAD4 Cys367Ser mutant was mixed with 16 nM FAM-Yap60-99 peptide (mean±s.d.; n=3). FIG. 4C illustrates measurement of fluorescence polarization due to binding when TEAD4 Cys367Ser mutant was incubated with increasing concentration of compounds for 24 h at 4° C. followed by addition of FAM-Yap60-99 (mean±s.d.; n=3).
# TEAD4 [2] = target: T3, TEAD4 (Homo sapiens, UniProt Q15561); experiment: Whole protein ESI mass spectrometry, adduct formation; format: binding; set-up: TEAD4 (217-434), TEAD4 (217-434) Cys367Ser mutant and Yap1 (Full-length) were expressed as GST-fusion proteins; GST (N, cleaved yes); made in house; host or cells: E. coli BL-21 (DE3), pGEX-6P-1; details: for covalent adduct formation with TEAD4 / adduct with TEAD4: 10 μM TEAD4, 200 μM compound, 24 h at 4° C.
# Protocol: as §2
# Target sequence in this assay (Q15561 217-434): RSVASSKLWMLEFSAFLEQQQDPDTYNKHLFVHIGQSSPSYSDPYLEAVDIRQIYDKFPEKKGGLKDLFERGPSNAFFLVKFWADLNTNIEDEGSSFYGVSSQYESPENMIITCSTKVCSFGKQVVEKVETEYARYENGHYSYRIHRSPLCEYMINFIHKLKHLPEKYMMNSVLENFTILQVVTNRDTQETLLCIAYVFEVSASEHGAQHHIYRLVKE
# It was determined whether a covalent bond formed between inventive compounds and TEAD4. […] The covalent adduct formation by compound 2 was relatively fast (FIG. 3G), reaching nearly 100% adduct formation after 30 min incubation with TEAD4. Because the rate of inhibition developed over a longer timescale (FIG. 3C), compound 2 is proposed to induce a slow conformational change in TEAD4 that prevents its interaction with Yap1. To rule out the possibility that compound 2 induces slow aggregation of TEAD4, and not the proposed slow conformational change, GST-TEAD4 was incubated with DMSO compound 2 for 24 h at 4° C., followed by injection into an SEC column (FIG. 3H). […] A slight increase in dimer formation for the TEAD4 sample incubated with compound 2 occurred compared to the sample incubated with DMSO. […] Furthermore, it is highly unlikely that Cys-367 oxidation was responsible for the lack of 100% inhibition at longer times since it has been shown that covalent bond formation is rapid and complete within less than an hour.
# TEAD4 [3] = target: T3, TEAD4; experiment: Covalent streptavidin pull down of myc-TEAD4 from HEK293 cell lysates; format: cell-based; set-up: expressed in transfected cells; host or cells: HEK293; details: added to cell lysates
# Protocol: HEK293 cells transfected with the myc-TEAD4 construct were grown for 48 h and then treated with DMSO or with 25 μM of compound 2 for an additional 48 h. Cells were then harvested in lysis buffer (50 mM Tris-HCl, pH 7.3, 150 mM NaCl, 0.5 mM EDTA, 1% Triton X-100, PhosSTOP phosphatase inhibitor cocktail, and EDTA-free protease inhibitors cocktail). Cell lysates containing 2 mg of protein were incubated with the indicated compounds or DMSO for 24 h. Extracts were then incubated with Dynabeads M-280 Streptavidin (Sigma-Aldrich) for 2 h at 4° C. Dynabeads were then washed and bound proteins were denatured and eluted according to the manufacturer's instructions. Relative levels of myc-TEAD4 from each complex were measured by immunoblot analysis with the anti-c-Myc antibody (1:5,000, Sigma-Aldrich).
# Target sequence in this assay (Q15561 whole entry, the tested form may be a part): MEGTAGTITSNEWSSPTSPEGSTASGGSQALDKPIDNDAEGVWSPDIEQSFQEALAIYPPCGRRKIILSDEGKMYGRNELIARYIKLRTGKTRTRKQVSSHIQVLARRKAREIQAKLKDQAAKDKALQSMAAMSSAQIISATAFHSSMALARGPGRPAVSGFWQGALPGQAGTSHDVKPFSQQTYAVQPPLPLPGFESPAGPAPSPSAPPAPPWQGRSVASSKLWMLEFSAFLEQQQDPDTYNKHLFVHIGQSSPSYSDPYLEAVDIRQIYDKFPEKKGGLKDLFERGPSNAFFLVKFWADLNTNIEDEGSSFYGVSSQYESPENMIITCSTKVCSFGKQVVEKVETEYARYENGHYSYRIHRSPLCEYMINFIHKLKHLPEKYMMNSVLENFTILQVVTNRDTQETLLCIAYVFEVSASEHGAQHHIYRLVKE
# TEAD2 binding to Yap1 = target: T4, TEAD2 binding to Yap1 (Homo sapiens, UniProt Q15562); experiment: Fluorescence polarization, HIS-TEAD2 with FAM-Yap60-99 peptide; details: 24 h at 4° C.
# T4 construct: TEAD2 (217-447) was expressed as N-terminal HIS-fusion protein; made in house; host or cells: E. coli BL-21 (DE3), pET-28a
# Protocol: as §1
# TEAD4.Yap1 interaction [4] = target: T1, TEAD4.Yap1 interaction; experiment: Fluorescence polarization, GST-TEAD4 with FAM-Yap60-99 peptide; format: binding; set-up: TEAD4 (217-434), TEAD4 (217-434) Cys367Ser mutant and Yap1 (Full-length) were expressed as GST-fusion proteins; made in house; host or cells: E. coli BL-21 (DE3), pGEX-6P-1; details: 0.5, 6, 24, 48 h incubation at 4° C., 0.1-100 μM
# [5] = system: patient-derived GBM43 glioblastoma spheroids; experiment: GBM43 spheroid viability (Alamar blue); format: cell-based, human; details: Homo sapiens; three-dimensional spheroids; read-out: EC50, inhibition of GBM43 spheroid growth
# Protocol: Early-passage GBM43 cells were cultured in ultralow adherence plates (Corning Inc.) at 1 to 2×10^3 cells/mL in DMEM supplemented with 1% […] (Invitrogen), 2% B27 (Invitrogen), 25 ng/mL epidermal growth factor (EGF, 25 ng/mL fibroblast growth factor (FGF) (R&D Systems, Inc.), […], 2 ng/mL platelet growth factor, and 100 ng/mL each of penicillin and streptomycin (Invitrogen Inc.). Individual cells were recovered from spheres by incubation with Accutase (Sigma-Aldrich) for 10-15 minutes. Cells (50-100/well) were then seeded in fresh sphere-forming media in 96-well plates. After 2-3 days, Neurospheres containing 6 to 8 cells were treated with compounds 1, 2, and 5.
# HEK-293 were cultured in DMEM with glutamine (Cellgro, Manassas, Va.) supplemented with 10% FBS and 1% penicillin/streptomycin in a 5% CO2 atmosphere at 37° C. Tumors were expanded by passage in the flank of NOD/SCIDγnull mice. To generate GBM43 cell lines, tumors were harvested, disaggregated, and maintained in 2.5% FBS for 14 days on Matrigel-coated plates (BD Biosciences) to remove murine fibroblasts. In-vitro GBM43 cell lines were propagated in DMEM with 10% FBS for no more than 7 passages. Cell line identity was confirmed by DNA fingerprint analysis (IDEXX BioResearch) for species and baseline short-tandem repeat analysis testing. GBM43 spheroids were generated by plating early-passage cells at 2.5×10^4 cells per well in 96-well ultralow attachment plates (Corning Inc.) in DMEM/F12 (1:1; GIBCO) supplemented with 2% B27 supplement (GIBCO), 20 ng/mL epidermal growth factor (EGF), and 20 ng/mL fibroblast growth factor (FGF) (Peprotech) for 2 days. The spheroids were then treated with compounds 1, 2, and 5 and growth analyzed by Alamar blue staining.
# [6] = as tested described herein, read-out: EC50 in the EC50 assay
# T1 sequence (Q15561 217-434): as the sequence (Q15561 217-434) above
# T4 sequence (Q15562 217-447): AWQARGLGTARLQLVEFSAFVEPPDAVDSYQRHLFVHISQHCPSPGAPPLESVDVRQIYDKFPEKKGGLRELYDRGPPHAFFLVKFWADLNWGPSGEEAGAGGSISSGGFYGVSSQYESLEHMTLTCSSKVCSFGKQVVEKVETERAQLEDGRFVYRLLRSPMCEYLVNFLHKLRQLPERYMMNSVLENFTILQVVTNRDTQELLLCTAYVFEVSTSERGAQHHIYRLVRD
# T2 sequence (Q15561 217-434 C367S): as the sequence (Q15561 217-434) above, with C151S counted along it
structure (smiles),measurement,setting,value
"O=C(CF)c1ccccc1Nc1cccc(C(F)(F)F)c1 [Example 10, 2-fluoro-1-(2-((3-(trifluoromethyl)phenyl)amino)phenyl) ethanone]",inhibition of TEAD4.Yap1 interaction,TEAD4.Yap1 interaction [1],minimal inhibition
"NC(=O)CI [iodoacetamide, reference compound]",modification of TEAD4 Cys367Ser mutant,TEAD4 Cys367Ser mutant,"no modification of the protein, except for a small adduct that was detected only at 200 μM"
same,inhibition of TEAD4.Yap1 interaction,TEAD4.Yap1 interaction [1],unable to inhibit
same,adduct formation with TEAD4,"TEAD4 [2]; 5 μM TEAD4, 12.5, 50, 200 μM at 4° C., after 6 h",modified by a single adduct
"O=C(CCCCC1SCC2NC(=O)NC21)NCCOCCOCCCCCOc1cccc(Nc2ccccc2C(=O)CCl)c1 (stereo not shown) [Compound 9, N-(2-(2-((5-(3-((2-(2-chloroacetyl)phenyl)amino)phenoxy)pentyl)oxy)ethoxy)ethyl)-5-(2-oxohexahydro-1H-thieno[3,4-d]imidazol-4-yl)pentanamide]","TEAD4 in streptavidin pull-down, immunoblot",TEAD4 [3],TEAD4 was specifically detected
C=CC(=O)Nc1ccccc1Nc1cccc(C(F)(F)F)c1 [Example 12],max (inhibition) in the EC50 assay,TEAD4.Yap1 interaction [1]; as tested described herein,23%
same,EC50,TEAD4.Yap1 interaction [1]; [6],13.7 µM
"COc1ccc(C(=O)CCl)c(Nc2cccc(C(F)(F)F)c2)c1 [Compound 6, 2-chloro-1-(4-methoxy-2-((3-(trifluoromethyl)phenyl)amino)phenyl)ethanone]",inhibition of TEAD2 binding to Yap1,TEAD2 binding to Yap1,much weaker inhibitors of TEAD2 compared to TEAD4
same,inhibition / maximum inhibition of TEAD4.Yap1 interaction,TEAD4.Yap1 interaction [1],51%
same,EC50,"TEAD4.Yap1 interaction [1]; 24 h incubation with TEAD4 at 4° C., read-out: apparent EC50, inhibition of TEAD4.Yap1 protein-protein interaction",2.3 ± 0.8 µM
same,t1/2^∞ (half-life of inactivation),TEAD4.Yap1 interaction [1],20 h
same,kinact,TEAD4.Yap1 interaction [4]; read-out: rate of inactivation kinact (converted),9.44e-06 s⁻¹
same,covalent adduct formation with TEAD4,TEAD4 [2],formed single adducts
"O=C(CCl)Nc1ccccc1Nc1cccc(C(F)(F)F)c1 [Example 11, 2-chloro-N-(2-((3-(trifluoromethyl)phenyl)amino)phenyl) acetamide]",max (inhibition) in the EC50 assay,TEAD4.Yap1 interaction [1]; as tested described herein,50%
same,EC50,TEAD4.Yap1 interaction [1]; [6],11.7 µM
"Cn1nnc2c(C(N)=O)ncn2c1=O [Temozolomide, temozolomide, reference compound]",EC50,[5],244 ± 24 µM
"O=C(CCl)c1ccccc1Nc1ccc(-c2cccs2)cc1 [Compound 7, 2-chloro-1-(2-((4-(thiophen-2-yl)phenyl)amino)phenyl)ethanone]",inhibition of TEAD4.Yap1 interaction,TEAD4.Yap1 interaction [1],lack of TEAD4 inhibition
same,adduct with TEAD4,TEAD4 [2],100%
same,covalent adduct formation with TEAD4,TEAD4 [2],formed single adducts
"O=C(CCl)c1ccccc1Nc1cccc(-c2cccs2)c1 [Compound 8, 2-chloro-1-(2-((3-(thiophen-2-yl)phenyl)amino)phenyl)ethanone]",inhibition of TEAD4.Yap1 interaction,TEAD4.Yap1 interaction [1],lack of TEAD4 inhibition
same,adduct with TEAD4,TEAD4 [2],100%
same,covalent adduct formation with TEAD4,TEAD4 [2],formed single adducts
"COCCOc1cccc(Nc2ccccc2C(=O)CCl)c1 [Compound 4, 2-chloro-1-(2-((3-(2-methoxyethoxy)phenyl)amino)phenyl)ethanone]",inhibition of TEAD2 binding to Yap1,TEAD2 binding to Yap1,much weaker inhibitors of TEAD2 compared to TEAD4
same,inhibition / maximum inhibition of TEAD4.Yap1 interaction,TEAD4.Yap1 interaction [1],31%
same,"apparent EC50, inhibition of TEAD4.Yap1 protein-protein interaction",TEAD4.Yap1 interaction [1]; 24 h incubation with TEAD4 at 4° C.,substantially lower (nearly an order of magnitude) than its parent compound 2
same,t1/2^∞ (half-life of inactivation),TEAD4.Yap1 interaction [1],67.3 h
same,kinact,TEAD4.Yap1 interaction [4]; read-out: maximum rate of inactivation (kinact) (converted),2.78e-06 s⁻¹
same,covalent adduct formation with TEAD4,TEAD4 [2],formed single adducts

# From patent US20210403415A1, “COMPOUNDS AND METHODS TO ATTENUATE TUMOR PROGRESSION AND METASTASIS” (THE TRUSTEES OF INDIANA UNIVERSITY, priority 2018, published 2021)
